Source: US20130317045A1, “THIENOPYRIDINE AND THIENOPYRIMIDINE COMPOUNDS AND METHODS OF USE THEREOF” (AMBIT BIOSCIENCES CORPORATION, priority 2010, published 2013)

Experiments:
JAK3 = molecular target: T1, JAK3 (Homo sapiens, UniProt P52333); experiment: Competition binding assay, JAK3
T1 construct: made in house
T1 sequence (P52333 1-1124): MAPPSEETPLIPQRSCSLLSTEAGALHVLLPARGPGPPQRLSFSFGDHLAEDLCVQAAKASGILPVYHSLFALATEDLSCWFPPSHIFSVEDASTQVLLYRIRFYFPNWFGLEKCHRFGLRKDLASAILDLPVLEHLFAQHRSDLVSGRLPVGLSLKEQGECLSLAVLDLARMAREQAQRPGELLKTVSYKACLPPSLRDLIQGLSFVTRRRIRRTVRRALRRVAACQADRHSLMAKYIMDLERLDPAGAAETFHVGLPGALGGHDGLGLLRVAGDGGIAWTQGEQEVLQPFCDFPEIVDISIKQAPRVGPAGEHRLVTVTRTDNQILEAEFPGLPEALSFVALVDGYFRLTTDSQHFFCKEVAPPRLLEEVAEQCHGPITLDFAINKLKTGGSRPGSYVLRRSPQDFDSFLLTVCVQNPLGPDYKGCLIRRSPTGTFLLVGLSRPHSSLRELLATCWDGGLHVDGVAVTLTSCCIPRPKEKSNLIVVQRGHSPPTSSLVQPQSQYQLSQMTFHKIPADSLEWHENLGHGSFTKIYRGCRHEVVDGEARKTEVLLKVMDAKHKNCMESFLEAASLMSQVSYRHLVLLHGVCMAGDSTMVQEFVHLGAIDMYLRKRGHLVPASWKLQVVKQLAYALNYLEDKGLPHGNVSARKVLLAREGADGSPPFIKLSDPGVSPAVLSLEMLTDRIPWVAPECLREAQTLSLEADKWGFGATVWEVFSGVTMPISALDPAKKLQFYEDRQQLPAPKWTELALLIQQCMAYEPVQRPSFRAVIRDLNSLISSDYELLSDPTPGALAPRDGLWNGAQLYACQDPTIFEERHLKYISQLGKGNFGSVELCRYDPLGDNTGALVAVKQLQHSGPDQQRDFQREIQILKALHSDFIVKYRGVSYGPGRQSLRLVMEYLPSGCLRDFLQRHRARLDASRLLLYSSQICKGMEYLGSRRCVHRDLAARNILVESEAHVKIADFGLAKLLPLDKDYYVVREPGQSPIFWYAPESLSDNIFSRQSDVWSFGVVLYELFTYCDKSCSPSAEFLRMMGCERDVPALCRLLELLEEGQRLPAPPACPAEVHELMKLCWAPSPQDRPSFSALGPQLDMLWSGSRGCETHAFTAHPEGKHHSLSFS
Text: (§1) Competition Binding Assay to Determine Binding Constants (Kd) of the Compounds Against JAK Kinases
(§2) Competition binding assays used herein were developed, validated and performed as described in Fabian et al., Nature Biotechnology 2005, 23,329-336. Kinases were produced as fusions to T7 phage (See, Fabian et al. or WO04/015142) or alternatively, the kinases were expressed in HEK-293 cells and subsequently tagged with DNA for PCR detection (See, WO08/005310). For the binding assays, streptavidin-coated magnetic beads were treated with biotinylated affinity ligands for 30 min at rt to generate affinity resins. The liganded beads were blocked with excess biotin and washed with blocking buffer (SeaBlock (Pierce), 1% BSA, 0.05% Tween 20, 1 mM DTT) to remove unbound ligand and to reduce non-specific binding. Binding reactions were assembled by combining kinase, liganded affinity beads, and test compounds in 1× binding buffer (20% SeaBlock, 0.17×PBS, 0.05% Tween 20, 6 mM DTT). Test compounds were prepared as 100× stocks in DMSO and rapidly diluted into the aqueous environment. DMSO was added to control assays lacking a test compound. Primary screen interactions were performed in polypropylene 384-well plates in a final volume of 34 μL, while Kd determinations were performed in polystyrene 96-well plates in a final volume of 135 μL. The assay plates were incubated at room temperature with shaking for 1 hour, long enough for binding reactions to reach equilibrium, and the affinity beads were washed extensively with wash buffer (1× PBS, 0.05% Tween 20) to remove unbound protein. The beads were then resuspended in elution buffer (1× PBS, 0.05% Tween 20, 2 μM non-biotinylated affinity ligand) and incubated at room temperature with shaking for 30 min. The kinase concentration in the eluates was measured by quantitative PCR. Each kinase was tested individually against each compound. Kds were determined using eleven serial threefold dilutions. A selectivity score, which is a quantitative measure of selectivity of a compound against a panel of enzymes, may be calculated for a compound by dividing the number of enzymes for which a compound meets a set criteria, (for example, a binding constant of 100 nM or less), by the total number of enzymes tested.

[1] = test system: GM-CSFR/JAK2/STAT5 pathway in CSTF-1 cells; experiment: CSTF-1 cell-based reporter assay (beta-lactamase, GM-CSF stimulated); set-up: species or system human; conditions: Homo sapiens; GM-CSF at 2 ng/mL, 4 hours; read-out: Cell Assay: CS TF-1 reporter assay IC50
Experimental: CSTF-1 Cell-Based Reporter Assay
CSTF-1 cells are derived from the human erythroleukemia cell line that is growth dependent on GM-CSF and has an intact GM-CSFR/JAK2/STAT5 pathway. The cell line contains stably integrated beta-lactamase reporter gene under the control of the […] (irf 1) response element recognized by the activated transcription factor STATS. csTF-1 cells (Invitrogen K1219) were washed with assay media (97% OPTIMEM/ 0.5% dialyzed FBS/0.1 mM NEAA/1 mM Na pyr/P/S) and seeded in the same media at 5×10^5 cell/mL in T150 flask. After 16 hour incubation, cells were seeded at 2×10^5 cell/well in 50 μl volume, into Costar, clear bottom, 96-well assay plates. Serial dilutions of compounds were added to the plates with final DMSO concentration at 0.5% and GM-CSF at 2 ng/mL and the plates were then incubated at […] and 5% CO2 for 4 hours. The plates were brought to room temperature before adding Substrate Mixture according to manufacturer's protocol (Invitrogen, Catalog #K1085). The assay plates containing the substrate mixture were incubated in the dark at room temperature for 2 hours. Blue and green fluorescence was measured with excitation at 409 nm and emission at 460 nm (for blue) and excitation at 409 nm and emission at 530 nm (for green) using Spectra Max Gemini EM.

TYK2 = molecular target: T2, TYK2 (Homo sapiens, UniProt P29597); experiment: Competition binding assay, TYK2
T2 construct: made in house
Text: as §1, §2

JAK2 = molecular target: T3, JAK2 (Homo sapiens, UniProt O60674); experiment: Competition binding assay, JAK2
T3 construct: made in house
Text: as §1, §2

[2] = test system: distinct kinases tested excluding mutant variants, typically 359 or 386 kinases; experiment: Kinase selectivity score from competition binding panel; conditions: compound at 10 μM; fraction of kinases with inhibition of 90% or greater
Experimental: as §2

T2 sequence (P29597 whole entry): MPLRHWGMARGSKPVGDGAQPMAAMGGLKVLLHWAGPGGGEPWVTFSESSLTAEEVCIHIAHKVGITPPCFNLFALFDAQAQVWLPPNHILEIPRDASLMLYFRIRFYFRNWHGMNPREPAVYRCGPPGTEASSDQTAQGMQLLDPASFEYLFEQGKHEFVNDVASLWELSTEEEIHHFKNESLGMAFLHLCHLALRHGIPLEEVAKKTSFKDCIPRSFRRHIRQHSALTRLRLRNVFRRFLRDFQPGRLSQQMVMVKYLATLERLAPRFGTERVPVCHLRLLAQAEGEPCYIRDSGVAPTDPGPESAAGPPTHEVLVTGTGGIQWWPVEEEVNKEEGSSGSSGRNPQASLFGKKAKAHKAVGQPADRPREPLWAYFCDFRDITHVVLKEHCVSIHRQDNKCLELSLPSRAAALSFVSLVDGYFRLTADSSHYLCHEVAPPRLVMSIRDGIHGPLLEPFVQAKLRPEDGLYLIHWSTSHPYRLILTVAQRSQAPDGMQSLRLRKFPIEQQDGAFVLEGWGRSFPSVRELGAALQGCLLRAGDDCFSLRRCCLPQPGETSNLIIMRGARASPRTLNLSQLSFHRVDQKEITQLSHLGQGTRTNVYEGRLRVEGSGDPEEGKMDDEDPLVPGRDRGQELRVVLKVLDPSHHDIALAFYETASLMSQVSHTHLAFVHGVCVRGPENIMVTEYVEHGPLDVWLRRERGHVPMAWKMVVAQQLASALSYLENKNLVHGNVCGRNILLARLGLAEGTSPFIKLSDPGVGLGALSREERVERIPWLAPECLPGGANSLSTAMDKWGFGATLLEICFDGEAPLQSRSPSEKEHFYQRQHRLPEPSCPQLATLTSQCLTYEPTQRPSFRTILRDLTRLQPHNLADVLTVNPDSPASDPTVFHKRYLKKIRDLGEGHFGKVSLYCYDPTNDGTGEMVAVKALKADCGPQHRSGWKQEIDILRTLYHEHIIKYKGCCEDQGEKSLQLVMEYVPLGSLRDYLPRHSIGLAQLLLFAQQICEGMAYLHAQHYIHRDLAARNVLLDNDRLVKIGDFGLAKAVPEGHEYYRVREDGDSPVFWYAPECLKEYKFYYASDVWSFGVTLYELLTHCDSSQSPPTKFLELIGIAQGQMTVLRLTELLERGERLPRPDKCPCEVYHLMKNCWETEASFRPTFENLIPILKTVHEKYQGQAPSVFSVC
T3 sequence (O60674 whole entry): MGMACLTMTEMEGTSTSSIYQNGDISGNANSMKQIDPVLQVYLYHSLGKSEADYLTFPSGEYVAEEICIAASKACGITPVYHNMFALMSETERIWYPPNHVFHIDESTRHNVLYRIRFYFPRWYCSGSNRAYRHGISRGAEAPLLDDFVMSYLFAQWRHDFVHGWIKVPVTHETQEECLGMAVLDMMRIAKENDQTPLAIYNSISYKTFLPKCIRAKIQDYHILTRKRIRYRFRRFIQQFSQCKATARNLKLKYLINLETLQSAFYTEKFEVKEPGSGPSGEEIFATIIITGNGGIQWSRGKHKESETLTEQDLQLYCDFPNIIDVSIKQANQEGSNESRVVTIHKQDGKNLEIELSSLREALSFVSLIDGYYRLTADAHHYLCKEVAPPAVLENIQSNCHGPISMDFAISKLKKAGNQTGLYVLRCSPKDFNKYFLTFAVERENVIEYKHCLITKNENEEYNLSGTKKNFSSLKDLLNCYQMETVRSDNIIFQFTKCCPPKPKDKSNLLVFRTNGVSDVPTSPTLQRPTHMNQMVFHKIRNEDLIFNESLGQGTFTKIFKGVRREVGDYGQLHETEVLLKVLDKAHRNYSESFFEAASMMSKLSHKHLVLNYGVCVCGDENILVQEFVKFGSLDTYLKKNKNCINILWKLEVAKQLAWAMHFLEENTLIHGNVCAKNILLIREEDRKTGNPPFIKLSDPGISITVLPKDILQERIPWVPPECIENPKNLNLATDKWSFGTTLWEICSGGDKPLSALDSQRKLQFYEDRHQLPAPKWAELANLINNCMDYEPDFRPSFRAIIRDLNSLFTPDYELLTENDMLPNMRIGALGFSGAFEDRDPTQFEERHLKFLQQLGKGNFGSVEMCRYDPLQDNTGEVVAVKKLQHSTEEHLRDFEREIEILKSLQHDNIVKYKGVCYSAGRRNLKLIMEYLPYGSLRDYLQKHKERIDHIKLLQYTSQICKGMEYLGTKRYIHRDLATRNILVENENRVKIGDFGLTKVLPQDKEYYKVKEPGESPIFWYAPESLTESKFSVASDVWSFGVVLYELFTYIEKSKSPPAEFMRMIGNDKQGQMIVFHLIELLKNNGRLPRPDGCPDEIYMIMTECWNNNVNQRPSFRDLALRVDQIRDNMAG

Row | SMILES | Kd (JAK3) [nM] | IC50 [1] [nM] | Kd (TYK2) [nM] | Kd (JAK2) [nM] | S-Score: S(10) at 10 μM [2]
1 | Cc1cc(Nc2nc(C(O)c3ccc(F)cc3)nc3scc(C)c23)n[nH]1 (racemic) [Example 11, (R,S)-(4-Fluorophenyl)(5-methyl-4-(5-methyl-1H-pyrazol-3-ylamino)thieno[2,3-d]pyrimidin-2-yl)methanol] | > 100 | > 500 | > 100 | > 10 | A (A ≦ 0.3)
2 | CC(C)(C)c1cc2nc(C(O)c3ccc(F)cc3)nc(Nc3cc[nH]n3)c2s1 (racemic) [Example 29, (R,S)-(4-(1H-pyrazol-3-ylamino)-6-tert-butylthieno[3,2-d]pyrimidin-2-yl)(4-fluorophenyl)methanol] | > 100 | 100 to 500 | > 100 | 1 to 10 | A (A ≦ 0.3)
3 | Cc1csc2nc(C(=O)c3ccc(F)cc3)nc(Nc3cc[nH]n3)c12 [Example 12, (4-(1H-pyrazol-3-ylamino)-5-methylthieno[2,3-d]pyrimidin-2-yl)(4-fluorophenyl)methanone] | > 100 | > 500 | > 100 | > 10 | A (A ≦ 0.3)
4 | Cc1cc(Nc2nc(C(=O)c3ccc(F)cc3)nc3c(C)csc23)n[nH]1 [Example 22, (4-fluorophenyl)(7-methyl-4-(5-methyl-1H-pyrazol-3-ylamino)thieno[3,2-d]pyrimidin-2-yl)methanone] | > 100 | 100 to 500 | > 100 | 1 to 10 | A (A ≦ 0.3)
5 | Cc1cc(Nc2nc(C(O)c3ccc(F)cc3)nc3c(C)csc23)n[nH]1 (centres unmarked) [Example 23, (4-fluorophenyl)(7-methyl-4-(5-methyl-1H-pyrazol-3-ylamino)thieno[3,2-d]pyrimidin-2-yl)methanol] | 10 to 100 | 100 to 500 | ≤ 10 | ≤ 1 | A (A ≦ 0.3)
6 | Cc1cc(Nc2nc(C(F)(F)c3ccc(F)cc3)nc3ccsc23)n[nH]1 [Example 7, 2-(difluoro(4-fluorophenyl)methyl)-N-(5-methyl-1H-pyrazol-3-yl)thieno[3,2-d]pyrimidin-4-amine] | ≤ 10 | ≤ 100 | ≤ 10 | ≤ 1 | C (0.4 < C ≦ 0.5)
7 | Cc1cc(Nc2nc(C(O)c3ccc(F)cc3)nc3ccsc23)n[nH]1 (racemic) [Example 6, (R,S)-4-Fluorophenyl)(4-(5-methyl-1H-pyrazol-3-ylamino)thieno[3,2-d]pyrimidin-2-yl)methanol] | ≤ 10 | ≤ 100 | ≤ 10 | ≤ 1 | A (A ≦ 0.3)
